Measurements reported in patent publication US11415579B2, “Assay for measuring a rate of reaction between a target and a ligand candidate” (Imperial College Innovations Ltd., priority 2016, dated 2022).

What was measured:
[1] = target: T1, human cyclin-dependent kinase 2 (Cdk2) (Homo sapiens, UniProt P24941); experiment: Kinetic thiol consumption assay with wild type Cdk2 (C177); assay type: binding; design: key to Rate enhancement, Cdk2 WT: k(Cdk2) divided by k(model thiol); Rate constant with Cdk2 (k(Cdk2)): unit not given here; settings: for Rate constant with Cdk2 (k(Cdk2)): 500 μM ligand, 5 μM thiol, phosphate buffer pH 8; for Rate enhancement, Cdk2 WT: no additional mutations; for Rate constant with Cdk2 WT: Protein: Cdk2, cysteine position WT, in h^-1; for k(Cdk2)/k(Cdk2_mut) rate enhancement: model thiol Cdk2[C177A, F80C, K278C]; for k(Cdk2)/k(GSH) rate enhancement: model thiol glutathione
T1 construct: poly-histidine; made in house; host or cells: E. coli
Procedure, shortened: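 His-tagged human Cdk2 from E. coli (sole surface cysteine C177) or a model thiol, each 5 μM in degassed phosphate buffer pH 8 with immobilized TCEP, reacted with acrylamides at room temperature. Fluorescence (ex 380/em 470) normalized to DMSO/thiol control over time; first-order rate constants, Cdk2 rate divided by model-thiol rate.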

Cdk2(R122C) (C177A) = target: T2, Cdk2(R122C) (C177A) (Homo sapiens, UniProt P24941, C177A/R122C); experiment: Kinetic thiol consumption assay with Cdk2 mutant R122C; assay type: binding; design: key to Rate enhancement, Cdk2 R122C: rate constant with Cdk2 ÷ rate constant with model thiol (fold); settings: additional mutation C177A; for Rate constant with Cdk2 R122C: Protein: Cdk2, cysteine position R122C, in h-1
T2 construct: poly-histidine; made in house; host or cells: E. coli
Procedure, shortened: (§1)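 His-tagged single-surface-cysteine Cdk2 mutants (C177A background) from E. coli, 5 μM in degassed phosphate buffer pH 8, pre-treated with immobilized TCEP beads. Fluorescence (ex/em 380/470 nm) read after 1 h at room temperature, normalized to DMSO/thiol-only control; first-order decay fits gave rate constants, divided by model-thiol rate for rate enhancement.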

[2] = Kinetic thiol consumption assay with model thiol glutathione; assay type: physicochemical; design: Rate constant with glutathione (k(GSH)): unit not given here; settings: for Rate constant with glutathione (k(GSH)): 500 μM ligand, 5 μM thiol, phosphate buffer pH 8; for Rate constant with Glutathione: Protein: Glutathione, cysteine position NA, in h-1
Procedure, shortened: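 Rate constants for acrylamide reaction with 5 μM glutathione come from first-order exponential fits of normalized fluorescence decay (ex 380, em 470 nm). Reactions run in degassed phosphate buffer at pH 8 containing TCEP beads, room temperature.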

Cdk2(S276C) (C177A) = target: T3, Cdk2(S276C) (C177A) (Homo sapiens, UniProt P24941, C177A/S276C); experiment: Kinetic thiol consumption assay with Cdk2 mutant S276C; assay type: binding; design: key to Rate enhancement, Cdk2 S276C: rate constant with Cdk2 ÷ rate constant with model thiol (fold); settings: additional mutation C177A; for Rate constant with Cdk2 S276C: Protein: Cdk2, cysteine position S276C, in h^-1
T3 construct: poly-histidine; made in house; host or cells: E. coli
Procedure, shortened: as §1

Cdk2(S181C) (C177A) = target: T4, Cdk2(S181C) (C177A) (Homo sapiens, UniProt P24941, C177A/S181C); experiment: Kinetic thiol consumption assay with Cdk2 mutant S181C; assay type: binding; design: key to Rate enhancement, Cdk2 S181C: rate constant with Cdk2 ÷ rate constant with model thiol (fold); settings: additional mutation C177A; for Rate constant with Cdk2 S181C: Protein: Cdk2, cysteine position S181C, in h^-1
T4 construct: poly-histidine; made in house; host or cells: E. coli
Procedure, shortened: as §1

Cdk2(T182C) (C177A) = target: T5, Cdk2(T182C) (C177A) (Homo sapiens, UniProt P24941, C177A/T182C); experiment: Kinetic thiol consumption assay with Cdk2 mutant T182C; assay type: binding; design: key to Rate enhancement, Cdk2 T182C: rate constant with Cdk2 ÷ rate constant with model thiol (fold); settings: additional mutation C177A; for Rate constant with Cdk2 T182C: Protein: Cdk2, cysteine position T182C, in h^-1
T5 construct: poly-histidine; made in house; host or cells: E. coli
Procedure, shortened: as §1

Cdk2(N272C) (C177A) = target: T6, Cdk2(N272C) (C177A) (Homo sapiens, UniProt P24941, C177A/N272C); experiment: Kinetic thiol consumption assay with Cdk2 mutant N272C; assay type: binding; design: key to Rate enhancement, Cdk2 N272: rate constant with Cdk2 ÷ rate constant with model thiol (fold); settings: for Rate enhancement, Cdk2 N272: Cdk2 N272, additional mutation C177A; for Rate constant with Cdk2 N272C: Protein: Cdk2, cysteine position N272C, additional mutation C177A, in h^-1
T6 construct: poly-histidine; made in house; host or cells: E. coli
Procedure, shortened: as §1

Cdk2[C177A, F80C, K278C] = target: T7, Cdk2[C177A, F80C, K278C] (Homo sapiens, UniProt P24941, C177A/F80C/K278C); experiment: Kinetic thiol consumption assay with mutant Cdk2 as model thiol; assay type: binding; design: unit not given here; settings: 500 μM ligand, 5 μM thiol, phosphate buffer pH 8
T7 construct: poly-histidine; made in house; host or cells: E. coli
Procedure, shortened: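 Model thiol: His-tagged human Cdk2 C177A/F80C/K278C (two engineered surface cysteines), E. coli-expressed, 5 μM in degassed phosphate buffer pH 8 with immobilized TCEP beads (2% v/v). Fluorescence (ex/em 380/470 nm) followed over time at room temperature, normalized to DMSO/thiol control. First-order decay fit gives rate constants.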

Cdk2(H71C) (C177A) = target: T8, Cdk2(H71C) (C177A) (Homo sapiens, UniProt P24941, C177A/H71C); experiment: Kinetic thiol consumption assay with Cdk2 mutant H71C; assay type: binding; design: key to Rate enhancement, Cdk2 H71C: rate constant with Cdk2 ÷ rate constant with model thiol (fold); settings: additional mutation C177A
T8 construct: poly-histidine; made in house; host or cells: E. coli
Procedure, shortened: as §1

Cdk2(C177A, F80C) = target: T9, Cdk2(C177A, F80C) (Homo sapiens, UniProt P24941, C177A/F80C); experiment: Kinetic thiol consumption assay with Cdk2 mutant F80C, incl. kobs versus concentration (Kd, k2); assay type: binding; design: key to Rate enhancement, Cdk2 F80C: Cdk2 rate constant divided by model-thiol rate constant; settings: additional mutation C177A; for Rate constant with Cdk2 F80C: Protein: Cdk2, cysteine position F80C, in h^-1
T9 construct: poly-histidine; made in house; host or cells: E. coli
Procedure, shortened: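 His-tagged Cdk2(C177A/F80C) from E. coli or model thiol, 5 μM in degassed phosphate buffer pH 8 with TCEP beads, reacted with acrylamide ligands; fluorescence (ex/em 380/470 nm) normalized to DMSO control and fitted to first-order decay for kobs. Kd and k2 obtained from hyperbolic fit of kobs versus ligand concentration.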

Rate constant with Cdk2 (k(Cdk2)) [1]	Rate enhancement, Cdk2 WT [1]	Rate constant with Cdk2 WT [1]	k(Cdk2)/k(Cdk2_mut) rate enhancement [1]	k(Cdk2)/k(GSH) rate enhancement [1]	Rate enhancement, Cdk2 R122C (Cdk2(R122C) (C177A))	Rate enhancement, Cdk2 S276C (Cdk2(S276C) (C177A))	Rate enhancement, Cdk2 S181C (Cdk2(S181C) (C177A))	Rate constant with Cdk2 S181C (Cdk2(S181C) (C177A))	Rate enhancement, Cdk2 T182C (Cdk2(T182C) (C177A))	Rate enhancement, Cdk2 N272 (Cdk2(N272C) (C177A))	Rate constant with Cdk2[C177A, F80C, K278C] (k(Cdk2_mut)) (Cdk2[C177A, F80C, K278C])	Rate enhancement, Cdk2 H71C (Cdk2(H71C) (C177A))	Rate enhancement, Cdk2 F80C (Cdk2(C177A, F80C))	Rate constant with Cdk2 F80C (Cdk2(C177A, F80C))	Rate constant with Cdk2 R122C (Cdk2(R122C) (C177A))	Rate constant with Cdk2 S276C (Cdk2(S276C) (C177A))	Rate constant with Cdk2 T182C (Cdk2(T182C) (C177A))	Structure (SMILES)	Rate constant with glutathione (k(GSH)) [2]	Rate constant with Glutathione [2]	further results
0.8358	0.4371	3.498	0.2732	3.342	0	0	0.9118	7.297	0	0	3.059	0	0.1587	1.27				C=CC(=O)N(C(=O)C=C)c1c2ccccc2n2c(C)nc3ccccc3c12 [CA-152]	0.2501	8.003	
0.00116	0.1591	0.001157	0.5905	0.2873	0.2392	0.1622	0.09002	0.0006548	0.1316	0.5049	0.00196	0	0.2437	0.001773	0.00174	0.00118	0.0009576	C=CC(=O)NC1CCN(Cc2ccccc2)CC1 [BN-78]	0.00403	0.007274	Rate constant with Cdk2 N272C (Cdk2(N272C) (C177A)): 0.003673
0.00298	0.6621	0.003025	0.8251	0.6464	0.3414	1.226	0.6373	0.002912	0.6691	0.3701	0.00361	0	0.1378	0.0006296	0.00156	0.005603	0.003057	C=CC(=O)NC(C)c1ccc2c(c1)OCO2 (stereo not drawn) [EL-1051]	0.00461	0.004569	Rate constant with Cdk2 N272C (Cdk2(N272C) (C177A)): 0.001691
0.00676	3.777	0.01619	0.356	2.66	0.4256	1.648	0.8854	0.003795	59.66	2.921	0.01899	1.033	18.66	0.07999	0.001824	0.007064	0.2557	C=CC(=O)NCCNC(=O)c1ccccc1 [CA216]	0.00254	0.004286	Rate constant with Cdk2 N272C (Cdk2(N272C) (C177A)): 0.01252; Rate constant with Cdk2 H71C (Cdk2(H71C) (C177A); Protein: Cdk2, cysteine position H71C, in h^-1): 0.004427
